Measurements as given in PMC9458217, “Synthesis and Biological Evaluation of Cassane Diterpene (5α)-Vuacapane-8(14), 9(11)-Diene and of Some Related Compounds” (Molecules, 2022).
Converted amounts (≈) assume the structure as drawn. Read-outs that look alike come from different tables or passages of the source.

How the values were obtained:
[1] = test system: RAW 264.7 monocyte/macrophage murine cells; assay: MTT cytotoxicity on RAW 264.7 cells; format: cell-based; conditions: Mus musculus
Method: MTT is transformed to formazan in cells with metabolism capacity (viable cells), as the number of viable cells is proportional to formazan concentration; this assay was used to determine the cytotoxicity of the compounds.
In all experiments, subconfluent monolayer cells were used.
The effect of compounds on the cell viability was determined by the MTT method (Sigma, St. Louis, MO, USA). The cytotoxicity of the compounds was detected by measuring the absorbance of MTT dye staining of cells with metabolism capacity. […] Finally, after 72 h, 100 μL of MTT solution (0.5 mg/mL) in 50% of PBS and 50% of the medium was added to each well. After 1.5 h of incubation, formazan was re-suspended in 100 μL of DMSO, and each concentration was tested in triplicate.
(§1) Experimental cytotoxicity data were fitted to a sigmoidal function (y = ymax/ (x/a)^−b) by non-linear regression. […] Similar analyses were performed to obtain the IC50 of NO production (IC50 NO). All shown data are representative of at least two independent experiments performed in triplicate. All quantitative data were summarized as the means ± standard deviation (SD).

[2] = test system: LPS-induced J774.A1 macrophage cells; set-up: method as in PMID 34990974; conditions: 50 μM, natural compounds; cited from earlier work
[3] = test system: HT29 human colorectal adenocarcinoma cell line; assay: MTT cytotoxicity on HT29 cells; conditions: HT-29, 72 h
Method: (§2) These studies were performed using the MTT assay, based on formazan dye formation and expressed as a percentage with respect to untreated control cells (100% of cell metabolism).
(§3) The effect of compounds on the cell viability was determined by the MTT method [27] (Sigma, St. Louis, MO, USA). The cytotoxicity of the compounds was detected by measuring the absorbance of MTT dye staining of cells with metabolism capacity. […] Finally, after 72 h, 100 μL of MTT solution (0.5 mg/mL) in 50% of PBS and 50% of the medium was added to each well. After 1.5 h of incubation, formazan was re-suspended in 100 μL of DMSO, and each concentration was tested in triplicate.
(§4) Experimental cytotoxicity data were fitted to a sigmoidal function (y = ymax/ (x/a)^−b) by non-linear regression. […] All shown data are representative of at least two independent experiments performed in triplicate. All quantitative data were summarized as the means ± standard deviation (SD).

[4] = test system: HepG2 human hepatocarcinome cell-line; assay: MTT cytotoxicity on HepG2 cells; conditions: HepG2, 72 h
Method: as §2, §3, §4

[5] = test system: B16-F10 mouse melanoma cells; assay: MTT cytotoxicity on B16-F10 cells
Method: as §2, §3, §4

[6] = test system: LPS-stimulated RAW 264.7 murine macrophage cells; assay: Inhibition of NO production (nitrite, Griess reaction) in LPS-stimulated RAW 264.7 cells; format: cell-based; conditions: for IC50: Mus musculus, RAW264.7, 72 h; for NO inhibition: 72 h
Method: The activation of the inflammatory process induces nitric oxide, NO, released as a second messenger. NO production can be used as the main indicator to assess inflammatory activity, which can be measured using nitrite (NO^2–) quantification (proportional to the released NO), determined through the Griess reaction. […] Inhibition percentages were calculated with respect to the increase between positive control (only LPS treated control cells) and negative control (untreated control cells).
The absorbance was referred to nitrite standard curve to determine the concentration of nitrite in the supernatant of each experimental sample. The percentage of NO production was determined, assigning 100% at the increase between negative control (untreated cells) and positive control (cells only treated with 10 μg/mL of LPS).
as §1

[7] = test system: RAW 264.7 cells, activated by LPS; assay: Cell cycle distribution of LPS-activated RAW 264.7 cells, flow cytometry with PI; format: cell-based, murine
Method: The cell-cycle distribution was analyzed by flow cytometry with propidium iodide (IP) staining (Figure 3). Significant growth arrest of the cell cycle in LPS-induced RAW 264.7 cells produced 100% detention in the G0/G1 phase (positive control) compared to the negative control (49.6%). After incubation with compound 20, the percentage of cells found in the G0/G1 phase was 29%, 32%, and 36%, respectively, at the assayed concentrations. Similar results were found for compound 16 (35%, 38%, and 39%) after 72 h of incubation at the same concentrations. This decrease was accompanied by the consequent increase in the number of cells in the S phase: 70%, 68%, and 56%, respectively, for compound 20, and 63%, 61%, and 59% for compound 16. […] This recovery of the cell cycle with respect to control cells (only LPS treated) could be a consequence of the anti-inflammatory effect produced by the tested compounds, which increase cell division, rescuing RAW 264.7 cells from LPS-induced arrest during their monocyte/macrophage differentiation process.
DNA content is directly proportional to the PI fluorescence; it allows us to determine the percentage of cells in each cell cycle phase. Using a fluorescence-activated cell sorter (FACS) at 488 nm in an Epics XL flow cytometer (Coulter Corporation, Hialeah, FL, USA), cell subpopulations could be visualized with different DNA contents. […] By treating cells only with LPS, the positive control was performed. However, the negative control was prepared, exposing cells […]. After treatment, cells were washed twice with PBS and trypsine solution, then resuspended in TBS 1X (10 Mm Tris, 150 Mm NaCl) and then Vindelov buffer (100 mM Tris, 100 Mm NaCl, 10 mg/mL Rnasa, 1 mg/mL PI, pH 8) was added. The samples were placed for 15 min on ice. Immediately before FACS analysis, cells were stained with 20 μL of 1 mg/mL PI solution. Data were analyzed to determine the percentage of cells in each cell cycle phase (G0/G1, S, and G2/M).

[8] = RAW264.7, RAW 264.7, MTT, 72 h of incubation, 20% cell viability inhibition, read-out: IC20
[9] = RAW264.7, RAW 264.7, MTT, 72 h of incubation, 80% cell viability inhibition, read-out: IC80
[10] = RAW264.7, RAW 264.7, MTT, 72 h of incubation, read-out: IC50
[11] = LPS-activated RAW 264.7, 72 h of incubation

| SMILES | IC20 ([1]; RAW264.7, 72 h) [µg/mL] | IC80 ([1]; RAW264.7, 72 h) [µg/mL] | IC50 [4] [µg/mL] | IC50 ([5]; Mus musculus, B16-F10, 72 h) [µg/mL] | IC20 [1, 8] [µg/mL] | IC80 [1, 9] [µg/mL] | IC50 [1, 10] [µg/mL] | IC50 [6, 11] [µg/mL] | IC50 ([3]; HT29, MTT, 72 h) [µg/mL] | IC50 ([5]; 72 h) [µg/mL] | other results |
| --- | --- | --- | --- | --- | --- | --- | --- | --- | --- | --- | --- |
| Cc1c2c(cc3c1CC[C@H]1C(C)(C)CCC[C@]31C)OC(=O)C2 [Compound 5, pterolobirin H] | 34.9 ± 2.11 (≈ 117 µM) | 64.2 ± 3.29 (≈ 215 µM) | – | – | – | – | – | – | – | – | – |
| Cc1c2c(cc3occc13)[C@@]1(C)CCCC(C)(C)[C@@H]1CC2 [Compound 7, (5a)-vouacapane-8(14),9(11)-diene] | 50.9 ± 1.61 (≈ 180 µM) | 65.5 ± 0.95 (≈ 232 µM) | 14 ± 0.5 (≈ 49.4 µM) | 31.7 ± 1.1 (≈ 112 µM) | – | – | – | – | – | – | IC50 ([1]; RAW264.7, 72 h): 57.5 ± 1.06 µg/mL (≈ 204 µM); inhibition of NO production [2]: did not show any significant inhibition of NO production; IC50 [3]: 20.7 ± 1.09 µg/mL (≈ 73.2 µM) |
| COC(=O)c1ccc2c(c1C(=O)OC)CC[C@H]1C(C)(C)CCC[C@]21C [Compound 14] | – | – | 33.8 ± 0.8 (≈ 98 µM) | < 10 | 22.92 ± 0.13 (≈ 66.5 µM) | 26.89 ± 0.02 (≈ 78.1 µM) | 24.67 ± 0.04 (≈ 71.6 µM) | 10.7 ± 1.14 (≈ 31.1 µM) | 15.4 ± 2.72 (≈ 44.8 µM) | 9.25 ± 0.74 (≈ 26.9 µM) | – |
| COC(=O)C1=C(C(=O)OC)C2(C)CC[C@H]3C(C)(C)CCC[C@]3(C)C2=CC1 (stereo partly drawn) [Compound 15] | – | – | 58.32 ± 0.32 (≈ 162 µM) | 13 ± 1.8 (≈ 36.1 µM) | 43.7 ± 2.37 (≈ 121 µM) | 83.67 ± 0.64 (≈ 232 µM) | 64.6 ± 1.39 (≈ 179 µM) | 7.98 ± 0.1 (≈ 22.1 µM) | 25.3 ± 0.89 (≈ 70.2 µM) | – | – |
| COC(=O)C1=C(C(=O)OC)C2(C)CC[C@H]3C(C)(C)CCC[C@]3(C)C2=CC1=O (stereo partly drawn) [Compound 16] | – | – | 26.7 ± 0.88 (≈ 71.4 µM) | < 10 | 14.5 ± 0.68 (≈ 38.7 µM) | – | 26.7 ± 0.88 (≈ 71.4 µM) | 2.98 ± 0.04 (≈ 7.96 µM) | 11.9 ± 0.8 (≈ 31.8 µM) | 6.01 ± 0.41 (≈ 16 µM) | IC50 NO [6, 11]: 5.71 ± 0.14 µg/mL (≈ 15.2 µM); NO inhibition ([6]; at ¼ IC50 concentration): 100%; NO inhibition ([6]; at ½ IC50 concentration): 100%; NO inhibition ([6]; at ¾ IC50 concentration): 100%; cells in the S phase ([7]; ¼ IC50, 72 h): 63%; percentage of cells in the G0/G1 phase ([7]; ¼ IC50, 72 h, LPS control 100%, negative control 49.6%): 35%; changes in the G2/M phase ([7]; ¼, ½ and ¾ IC50, 72 h): not significant; cells in the S phase ([7]; ½ IC50, 72 h): 61%; percentage of cells in the G0/G1 phase ([7]; ½ IC50, 72 h): 38%; cells in the S phase ([7]; ¾ IC50, 72 h): 59%; percentage of cells in the G0/G1 phase ([7]; ¾ IC50, 72 h): 39% |
